Laboratory results: US11103460B2 (priority 2017, dated 2021)

Legend:
[1] = human, in vivo, iv; cited from earlier work

SMILES | in vivo release behaviour (fluorescence in urine) | patients experiencing bone marrow toxicity resulting in neutropenia [1]
O=C([O-])c1ccccc1-c1c2ccc(=O)cc-2oc2cc([O-])ccc12.[Na+].[Na+] [sodium fluorescein, Sodium fluorescein] | long-term constant release | –
Nc1nc(O)c2ncn(COC(CO)CO)c2n1 [Ganciclovir] | – | 30-50%
